Measurements reported in patent publication US20200407717A1, “METHODS OF MODULATING ANTISENSE ACTIVITY” (Ionis Pharmaceuticals, Inc., priority 2018, published 2020).

Test system: A431 cells
Assay: Uptake of Cy3-labeled ASO by flow cytometry, A431 cells
Assay type: cell-based
Protocol: Uptake of compound no. 446654 by A431 cells was measured by flow cytometry. A431 cells were treated with a growth factor for 4 hours prior to incubation with compound no. 446654 for 2 hours. Results are presented in the tables below as relative fluorescence units (RFU) and represent an average of three independent experiments.
Uptake of compound no. 446654 was measured in siRNA treated A431 cells via flow cytometry, as described in example 8. The results are presented in the tables below and indicate that uptake of compound no. 446654 was unaffected by EGFR expression level.

Cy3-^mCesTesGes^mCesTesAdsGds^mCdsTds^mCdsTdsGdsGdsAdsTesTesTesGesAe (antisense CTGCTAGCCTCTGGATTTGA; listed as DNA, chemistry not fully specified) [compound 446654, Cy3-labeled PS-ASO]
RFU (0.015 μM, Control Luciferase siRNA): 22.3 RFU | RFU (0.015 μM, EGFR siRNA-1): 25.3 RFU | RFU (0.015 μM, EGFR siRNA-2): 24.7 RFU | RFU (0.03 μM, Control Luciferase siRNA): 31.3 RFU | RFU (0.03 μM, EGFR siRNA-1): 33.0 RFU | RFU (0.03 μM, EGFR siRNA-2): 29.0 RFU | RFU (0.06 μM, Control Luciferase siRNA): 136 RFU | RFU (0.06 μM, EGFR siRNA-1): 133 RFU | RFU (0.06 μM, EGFR siRNA-2): 101 RFU | RFU (0.12 μM, Control): 1475 RFU | RFU (0.12 μM, Control Luciferase siRNA): 359 RFU | RFU (0.12 μM, EGF): 1772 RFU | RFU (0.12 μM, EGFR siRNA-1): 444 RFU | RFU (0.12 μM, EGFR siRNA-2): 292 RFU | RFU (0.12 μM, FGF): 1420 RFU | RFU (0.12 μM, HGF): 1204 RFU | RFU (0.12 μM, IGF): 1659 RFU | RFU (0.12 μM, PGF): 1321 RFU | RFU (0.12 μM, TGF): 1500 RFU | RFU (0.12 μM, VEGF): 1147 RFU | RFU (0.25 μM, Control): 1606 RFU | RFU (0.25 μM, Control Luciferase siRNA): 806 RFU | RFU (0.25 μM, EGF): 1917 RFU | RFU (0.25 μM, EGFR siRNA-1): 879 RFU | RFU (0.25 μM, EGFR siRNA-2): 852 RFU | RFU (0.25 μM, FGF): 1682 RFU | RFU (0.25 μM, HGF): 1481 RFU | RFU (0.25 μM, IGF): 1435 RFU | RFU (0.25 μM, PGF): 1275 RFU | RFU (0.25 μM, TGF): 1871 RFU | RFU (0.25 μM, VEGF): 1423 RFU | RFU (0.5 μM, Control): 2223 RFU | RFU (0.5 μM, Control Luciferase siRNA): 1392 RFU | RFU (0.5 μM, EGF): 2349 RFU | RFU (0.5 μM, EGFR siRNA-1): 1437 RFU | RFU (0.5 μM, EGFR siRNA-2): 1490 RFU | RFU (0.5 μM, FGF): 1827 RFU | RFU (0.5 μM, HGF): 2095 RFU | RFU (0.5 μM, IGF): 1917 RFU | RFU (0.5 μM, PGF): 2112 RFU | RFU (0.5 μM, TGF): 2081 RFU | RFU (0.5 μM, VEGF): 1973 RFU | RFU (1.0 μM, Control): 1565 RFU | RFU (1.0 μM, Control Luciferase siRNA): 2374 RFU | RFU (1.0 μM, EGF): 2532 RFU | RFU (1.0 μM, EGFR siRNA-1): 2614 RFU | RFU (1.0 μM, EGFR siRNA-2): 2906 RFU | RFU (1.0 μM, FGF): 2414 RFU | RFU (1.0 μM, HGF): 2533 RFU | RFU (1.0 μM, IGF): 2237 RFU | RFU (1.0 μM, PGF): 2487 RFU | RFU (1.0 μM, TGF): 2826 RFU | RFU (1.0 μM, VEGF): 2655 RFU | RFU (Time 0.25 hours, Control Luciferase siRNA): 1082 RFU | RFU (Time 0.25 hours, EGFR siRNA-1): 814 RFU | RFU (Time 0.25 hours, EGFR siRNA-2): 950 RFU | RFU (Time 0.5 hours, Control Luciferase siRNA): 1988 RFU | RFU (Time 0.5 hours, EGFR siRNA-1): 1562 RFU | RFU (Time 0.5 hours, EGFR siRNA-2): 1637 RFU | RFU (Time 1 hours, Control Luciferase siRNA): 2315 RFU | RFU (Time 1 hours, EGFR siRNA-1): 2308 RFU | RFU (Time 1 hours, EGFR siRNA-2): 2698 RFU | RFU (Time 2 hours, Control Luciferase siRNA): 2276 RFU | RFU (Time 2 hours, EGFR siRNA-1): 2280 RFU | RFU (Time 2 hours, EGFR siRNA-2): 2349 RFU | RFU (Time 4 hours, Control Luciferase siRNA): 3103 RFU | RFU (Time 4 hours, EGFR siRNA-1): 2854 RFU | RFU (Time 4 hours, EGFR siRNA-2): 3069 RFU | RFU (Time 6 hours, Control Luciferase siRNA): 4300 RFU | RFU (Time 6 hours, EGFR siRNA-1): 3747 RFU | RFU (Time 6 hours, EGFR siRNA-2): 3821 RFU | RFU (Time 8 hours, Control Luciferase siRNA): 4988 RFU | RFU (Time 8 hours, EGFR siRNA-1): 5048 RFU | RFU (Time 8 hours, EGFR siRNA-2): 5145 RFU | total uptake, effect of growth factor treatment (growth factor 4 hours, then compound 2 hours): not affected in a significant, dose dependent manner | uptake, effect of EGFR expression level (siRNA treated A431 cells): unaffected
